# Article PMC6748986, “Potent modulation of the CepR quorum sensing receptor and virulence in a Burkholderia cepacia complex member using non-native lactone ligands” (Scientific Reports, 2019)
# “And” between values parts separate entries of the source, which are not always exact repeats. Identical values can stand only once.
# Experiments:
# CepR [1] = target: T1, CepR (Burkholderia cenocepacia, UniProt B4EMD0); assay: CepR antagonism in E. coli β-galactosidase reporter (Ec-reporter), competition against C8-AHL; type: cell-based, B. cenocepacia; conditions: for Inh% (100-Act%): Table S3, Ec-reporter
# T1 sequence (B4EMD0 1-239): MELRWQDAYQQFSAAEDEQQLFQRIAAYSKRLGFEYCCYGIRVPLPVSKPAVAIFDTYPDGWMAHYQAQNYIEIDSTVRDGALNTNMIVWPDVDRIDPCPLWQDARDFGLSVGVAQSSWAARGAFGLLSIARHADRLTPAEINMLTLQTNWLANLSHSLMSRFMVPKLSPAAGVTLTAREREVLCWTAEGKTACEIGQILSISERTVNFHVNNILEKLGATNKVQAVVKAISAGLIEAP
# Source text: (§1) We began our study by screening the AHL library for CepR modulators using an E. coli-based two plasmid reporter system (Ec-reporter)[38]–[40]. Certain members of the Bcc harbor additional QS systems that are either AHL-based (e.g., BviI/BviR in B. vietnamiensis)[41] or diffusible signal factor (DSF)-based (B. cenocepacia)[42], and at least one member of the Bcc has multiple receptors that respond to C8-AHL (e.g., CepR and CepR2 in B. cenocepacia)[43]. Thus, we reasoned that using a CepR reporter in a heterologous background could simplify our initial analyses. We modified our previously reported E. coli-based two plasmid β-galactosidase reporter system to develop a CepR Ec-reporter (see Methods). The first plasmid, pJN105-cepR, contains CepR from B. cenocepacia under the control of the L-arabinose inducible pBAD promoter. A second plasmid contains a transcriptional fusion of lacZ to the cepI promoter region. The two plasmids were co-transformed into a QS mutant E. coli strain (JLD271 ∆sdiA) that lacks its LuxR-type receptor, SdiA. Using this reporter system, if an exogenously -added compound is able to interact with CepR, this will affect the protein’s interaction with the cepI promoter region and alter β-galactosidase production. Enzyme production, and thereby CepR activity, is then measurable via the degradation of a colorimetric substrate for β-galactosidase. Using this new Ec-reporter, we observed robust activity of CepR in response to its native ligand C8-AHL, with an EC50 of 5 nM (Table 1).
# To identify antagonists of CepR, we screened the AHL library (at 100 μM) in competition against the native ligand C8-AHL (at approximately twice its EC50 value, 0.01 μM) in the Ec-reporter. […] The active compounds were subjected to dose-response analyses in the Ec-reporter to obtain IC50 values and assess their relative potencies (Table 2; see Table S3 for complete screening data and Fig. S3 for dose-response curves). One general trend that we noted at the outset was the majority of the antagonists had acyl tails of similar or shorter overall length than CepR’s native ligand, C8-AHL. From this set, the strongest antagonists could be divided into two classes: (i) “short alkyl tail” AHLs or analogs thereof, and (ii) phenylacetanoyl HLs (PHLs). The discovery that the latter compounds were CepR antagonists was perhaps not surprising, as we have found substituted PHLs to strongly antagonize the majority of the LuxR-type receptors studied in our laboratory to date[22],[24],[29],[45],[46].
# (§2) E. coli β-galactosidase reporter assays (derived from ref.[63]) and reagents used to obtain primary screening and dose-response data were performed as previously described[22],[60],[64], with the following modifications: E. coli JLD271 (∆sdiA) was co-transformed iteratively with pSC11-cepI and pJN105-cepR via electroporation. A single colony was used to start overnight cultures in LB medium + ampicillin (100 μg/mL) + gentamicin (15 μg/mL). A 1:10 dilution of overnight culture was grown in fresh medium to OD600 = 0.25. A sterile solution of L-arabinose in water (27 mM final concentration) was added to induce protein expression, after which cells were plated in 96-well plates containing varying concentrations of compound (200 μL total volume).
# (§3) Cells were grown for 4 h, OD600 was read, 50 μL aliquots from each well were permeabilized in 200 μL Z Buffer, and then 150 μL of this mixture used to measure the cleavage of 25 μL of 4 mg/mL CPRG in phosphate buffered saline (PBS) at 37 °C until positive control wells developed a deep red color (~30 min). For all agonism assays, synthetic compound (100 μM) was screened alongside and compared to the native ligand, C8-AHL (100 μM). For all primary and dose-response antagonism assays, the concentration of native ligand utilized was 10 nM (approximately equal to twice its EC50 value). […] At least 3 separate trials were performed using unique cultures on separate days.
# CepR [2] = target: T1, CepR; assay: CepR agonism in E. coli β-galactosidase reporter (Ec-reporter) JLD271 [pJN105-cepR + pSC11-cepI]; type: cell-based, B. cenocepacia; conditions: for Maximal Activation (%): activity for 100 μM C8-AHL set to 100%, error ±10%
# Source text: as §1
# We used the CepR Ec-reporter to perform a primary agonism screen at a single compound concentration (100 μM, or its solubility limit, indicated in Table S1). Thirty-one compounds displaying ≥70% agonistic activity in CepR (relative to C8-AHL) were identified and subjected to dose-response analyses using the Ec-reporter (Table I; see Table S2 for complete screening data and Fig. S3 for dose-response curves).
# as §2, §3
# [3] = screening conc. 100 μM, against 10 nM C8-AHL
# [4] = Ec-reporter, agonism dose-response
# [5] = Table S2, Ec-reporter, screening conc. 100 μM
Compound,Inh% (100-Act%) (CepR [1]; [3]),Act% (CepR [2]; [5]),also measured
"CCCCCCCCCCCC(=O)N[C@H]1CCOC1=O [Compound C12-AHL, Dodecanoyl L-homoserine lactone, reference compound]",-30%,98%,EC50 (CepR [2]; [4]): 310 nM; Maximal Activation (%) (CepR [2]; Ec-reporter): 98%
O=C(CCCc1c[nH]c2ccccc12)NC1CCCC1 [Compound F21],25%,-4.0%,–
O=C(COc1ccccc1)N[C@H]1CCOC1=O [Compound E14],-30%,57%,–
O=C(N[C@H]1CCOC1=O)c1ccc(I)cc1 [Compound Q5],0.0%,78%,–
O=C(N[C@H]1CCOC1=O)c1ccc(N=Nc2ccccc2)cc1 [Compound D20],–,–,"Inh% (100-Act%) (CepR [1]; screening conc. 77 μM): 8.0%; Act% (CepR [2]; Table S2, Ec-reporter, screening conc. 77 μM): 37%"
CCCCCC(=O)CC(=O)N[C@@H]1CCOC1=O [D-3’O-C8-AHL],-40%,85%,CepR agonism in words (CepR [2]; Ec-reporter): inactive; EC50 (CepR [2]; [4]): ≥ 27000 nM; Maximal Activation (%) (CepR [2]; Ec-reporter): 85%
O=C(Cc1ccccc1)N[C@H]1CCOC1=O [Compound C1],–,0.0%,"CepR antagonism in words (CepR [1]; Ec-reporter): inactive; Maximal Inhibition (%) (CepR [1]; Ec-reporter, against 10 nM C8-AHL): 8%"
O=C(N[C@H]1CCOC1=O)c1ccc(-c2ccccc2)cc1 [Compound Q12],-70%,111%,–
COc1ccc(C(=O)N[C@H]2CCOC2=O)cc1 [Compound Q6],-20%,25%,–
O=C(Cc1cccc([N+](=O)[O-])c1)NC1CCCC1 [Compound F18],-20%,1.0%,CepR antagonism in words (CepR [1]; Ec-reporter): dramatic losses in activity
O=C(C=Cc1ccccc1)NC1CCOC1=O (stereo not drawn) [Compound B10],11%,60%,–
Cc1ccc(CC(=O)N[C@H]2CCOC2=O)cc1 [Compound C19],-20%,-1.6%,–
COc1cc(C(C)=O)ccc1OCC(=O)N[C@H]1CCOC1=O [Compound D16],0.0%,3.5%,–
O=C(Cc1ccc(Br)cc1)N[C@@H]1CCOC1=O [Compound B4],0.0%,-0.5%,–
Cc1ccc(C(=O)N[C@H]2CCOC2=O)cc1 [Compound Q8],-20%,19%,–
"CCCCCCCCCC(=O)NC1CCCC1 [Compound C10-CPA, reference compound]",4.0%,48%,–
O=C(Cc1ccc(C(F)(F)F)cc1)N[C@H]1CCOC1=O [Compound C20],-52%,0.3%,–
O=C(COc1ccc(Br)cc1)N[C@H]1CCOC1=O [Compound E21],-10%,89%,–

Compound,Inh% (100-Act%) (CepR [1]; [3]),Act% (CepR [2]; [5]),also measured
O=C(N[C@H]1CCOC1=O)c1cccc(Br)c1 [Compound Q2],-30%,4.9%,–
O=C(Cc1ccc(I)cc1)N[C@H]1CCOC1=O [Compound C10],-10%,29%,–
COc1ccc(OCC(=O)N[C@H]2CCOC2=O)cc1 [Compound E17],0.0%,50%,–
O=C(CCc1ccccc1)N[C@H]1CCOC1=O [Compound B9],-40%,88%,EC50 fold higher than those for substituted PPHLs (CepR [2]; Ec-reporter): ~ 1000 fold; EC50 (CepR [2]; [4]): 1000 nM; Maximal Activation (%) (CepR [2]; Ec-reporter): 88%
O=C(CC(=O)N[C@H]1CCOC1=O)Cc1cccc(Cl)c1 [Compound H23],-20%,53%,–
Cc1ccc(C(=O)CCC(=O)N[C@H]2CCOC2=O)cc1 [Compound D6],-50%,61%,–
O=C(Cc1cc(C(F)(F)F)cc(C(F)(F)F)c1)N[C@H]1CCOC1=O [Compound E9],13%,2.2%,–
"CCCCCCCCCC(O)CC(=O)N[C@H]1CCOC1=O (stereo partly drawn) [3’OH-C12-AHL, reference compound]",0.0%,52%,–
O=C(COc1ccc(I)cc1)N[C@H]1CCOC1=O [Compound E22],-30%,92%,–
O=C(COc1ccc(Cl)cc1)N[C@H]1CCOC1=O [Compound E20],-20%,100%,"EC50 (CepR [2]; Table S2, Ec-reporter): 210 nM"
O=C(COc1ccc(F)cc1)N[C@H]1CCOC1=O [Compound E19],22%,42%,–
O=C(N[C@H]1CCOC1=O)c1ccc2c(c1)OCO2 [Compound Q11],5.0%,6.9%,–
CCCCCCCCS(=O)(=O)N[C@H]1CCOC1=O [Compound A13],17%,108%,CepR agonism in words (CepR [2]; Ec-reporter): failed to activate CepR; EC50 (CepR [2]; [4]): 150 nM; Maximal Activation (%) (CepR [2]; Ec-reporter): 110%
Cc1cccc(CCC(=O)N[C@H]2CCOC2=O)c1 [Compound E27],-10%,75%,"EC50 (CepR [2]; Table S2, Ec-reporter): 850 nM"
"CCCCCCCCCC(=O)N[C@H]1CCOC1=O [Compound C10-AHL, decanoyl L-homoserine lactone, reference compound]",-30%,87%,EC50 (CepR [2]; [4]): 109 nM and 110 nM; Maximal Activation (%) (CepR [2]; Ec-reporter): 87%
O=C(Cc1ccc(-c2ccccc2)cc1)NC1CCSC1=O (stereo not drawn) [Compound F13],-20%,35%,–
O=C(N[C@H]1CCOC1=O)C1CCC(c2ccc(Cl)cc2)CC1 (stereo partly drawn) [Compound D14],–,–,"Inh% (100-Act%) (CepR [1]; screening conc. 40 μM): -20%; Act% (CepR [2]; Table S2, Ec-reporter, screening conc. 40 μM): 54%"
